Data published in paper PMC12567244, “Innovative Amino-Functionalization of Pyrido[2,3-d]pyrimidine Scaffolds for Broad Therapeutic Applications Supported by Computational Analyses” (Pharmaceuticals, 2025).
≈ marks a conversion by molar mass, not a printed value. Where “and” joins values, the source holds several entries; their conditions need not be identical. Equal values may be shown once. Read-outs that look alike come from different tables or passages of the source.

Experiments:
[1] = system: S. aureus ATCC25923; assay: MIC, two-fold serial dilution, S. aureus; format: cell-based, Staphylococcus aureus; details: for MIC: Staphylococcus aureus, ATCC25923
[2] = system: HeLa, HepG-2, and MCF-7; assay: MTT cytotoxicity, range over the cancer cell panel; details: read-out: IC50 across HeLa, HepG-2 and MCF-7; range over all examined cancer cell lines
[3] = system: MCF-7 cells; assay: Cell cycle analysis by flow cytometry; format: cell-based, human; details: MCF-7, 48 h incubation
[4] = target: T1, mutant EGFRL858R (Homo sapiens, UniProt P00533, L858R); assay: biochemical
[5] = system: E.coli ATCC25915; assay: Well diffusion inhibition zone, E. coli; details: Escherichia coli, ATCC25915, read-out: Inhibition zone E.coli ATCC25915
[6] = in vitro; details: human, WI-38 normal lung fibroblast cells
[7] = system: P. aeruginosa ATCC10145; assay: MIC, two-fold serial dilution, P. aeruginosa; format: cell-based; details: Pseudomonas aeruginosa
[8] = system: breast carcinoma (MCF-7); assay: MTT cytotoxicity assay, MCF-7; details: for SI MCF-7: IC50 WI-38 / IC50 MCF-7; for IC50: read-out: IC50 MCF-7, MTT, mean ± SD of three measurements
[9] = system: liver carcinoma (HepG-2); assay: MTT cytotoxicity assay, HepG-2; details: for SI HepG-2: IC50 WI-38 / IC50 HepG-2; for IC50: read-out: IC50 HepG-2, MTT, mean ± SD of three measurements
[10] = system: cervical carcinoma (HeLa); assay: MTT cytotoxicity assay, HeLa; details: for SI HeLa: IC50 WI-38 / IC50 HeLa; for IC50: read-out: IC50 HeLa, MTT, mean ± SD of three measurements
[11] = target: EGFRWT (Homo sapiens, UniProt P00533); assay: HTRF enzyme inhibitory assay, EGFR WT
[12] = system: E. faecalis ATCC29212; assay: Well diffusion inhibition zone, E. faecalis; details: Enterococcus faecalis, ATCC29212, read-out: Inhibition zone E. faecalis ATCC29212
[13] = target: T2, EGFRT790M (Homo sapiens, UniProt P00533, T790M); assay: biochemical
[14] = system: E. faecalis ATCC29212; assay: MIC, two-fold serial dilution, E. faecalis; format: cell-based, Enterococcus faecalis; details: for MIC: Enterococcus faecalis, ATCC29212
[15] = system: E. coli ATCC25915; assay: MIC, two-fold serial dilution, E. coli; format: cell-based; details: Escherichia coli
[16] = system: MCF-7 cells; assay: Wound healing (scratch) assay; format: cell-based, human
[17] = target: T2, EGFRT790M
[18] = target: T1, mutant EGFRL858R; details: for Fold-Change L858R/WT: potency relative to wild-type EGFR
[19] = system: MCF-7 cells; assay: Annexin V-FITC/PI apoptosis analysis; format: cell-based, human; details: MCF-7, 48 h
[20] = system: P. aeruginosa ATCC10145; assay: Well diffusion inhibition zone, P. aeruginosa; details: Pseudomonas aeruginosa, ATCC10145, read-out: Inhibition zone P. aeruginosa ATCC10145
[21] = system: S. aureus ATCC25923; assay: Well diffusion inhibition zone, S. aureus; details: Staphylococcus aureus, ATCC25923, read-out: Inhibition zone S. aureus ATCC25923

Sequence of EGFRWT (P00533 25-1210): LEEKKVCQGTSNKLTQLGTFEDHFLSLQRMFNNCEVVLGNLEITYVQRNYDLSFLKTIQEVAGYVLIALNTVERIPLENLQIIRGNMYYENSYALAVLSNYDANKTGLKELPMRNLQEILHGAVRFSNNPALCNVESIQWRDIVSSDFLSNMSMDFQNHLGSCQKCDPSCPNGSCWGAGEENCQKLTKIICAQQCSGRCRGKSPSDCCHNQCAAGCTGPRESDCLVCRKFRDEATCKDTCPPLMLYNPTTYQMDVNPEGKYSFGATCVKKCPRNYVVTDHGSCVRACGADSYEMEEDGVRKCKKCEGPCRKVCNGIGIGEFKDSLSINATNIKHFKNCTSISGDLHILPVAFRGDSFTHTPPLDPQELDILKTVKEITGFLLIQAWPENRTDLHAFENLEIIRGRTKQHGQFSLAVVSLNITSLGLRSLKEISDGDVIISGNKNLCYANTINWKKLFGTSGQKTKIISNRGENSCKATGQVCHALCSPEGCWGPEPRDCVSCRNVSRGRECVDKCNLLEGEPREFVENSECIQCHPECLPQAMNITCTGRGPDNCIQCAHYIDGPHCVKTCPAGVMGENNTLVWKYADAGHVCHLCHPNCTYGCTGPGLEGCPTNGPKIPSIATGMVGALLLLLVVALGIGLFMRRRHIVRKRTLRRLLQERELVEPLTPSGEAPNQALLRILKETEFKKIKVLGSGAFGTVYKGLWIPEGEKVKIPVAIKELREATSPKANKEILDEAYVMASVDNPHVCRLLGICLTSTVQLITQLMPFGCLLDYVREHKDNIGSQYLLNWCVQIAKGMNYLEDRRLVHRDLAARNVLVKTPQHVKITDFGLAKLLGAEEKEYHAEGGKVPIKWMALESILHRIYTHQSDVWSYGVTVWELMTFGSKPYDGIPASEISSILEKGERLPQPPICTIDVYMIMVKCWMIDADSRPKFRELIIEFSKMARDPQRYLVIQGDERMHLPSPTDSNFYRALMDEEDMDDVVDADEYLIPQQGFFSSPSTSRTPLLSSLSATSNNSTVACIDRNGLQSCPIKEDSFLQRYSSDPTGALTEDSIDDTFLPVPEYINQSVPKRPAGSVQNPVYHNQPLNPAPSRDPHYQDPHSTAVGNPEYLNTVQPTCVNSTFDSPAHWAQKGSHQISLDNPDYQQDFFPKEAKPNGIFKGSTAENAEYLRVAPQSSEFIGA
T1 sequence (P00533 25-1210 L858R): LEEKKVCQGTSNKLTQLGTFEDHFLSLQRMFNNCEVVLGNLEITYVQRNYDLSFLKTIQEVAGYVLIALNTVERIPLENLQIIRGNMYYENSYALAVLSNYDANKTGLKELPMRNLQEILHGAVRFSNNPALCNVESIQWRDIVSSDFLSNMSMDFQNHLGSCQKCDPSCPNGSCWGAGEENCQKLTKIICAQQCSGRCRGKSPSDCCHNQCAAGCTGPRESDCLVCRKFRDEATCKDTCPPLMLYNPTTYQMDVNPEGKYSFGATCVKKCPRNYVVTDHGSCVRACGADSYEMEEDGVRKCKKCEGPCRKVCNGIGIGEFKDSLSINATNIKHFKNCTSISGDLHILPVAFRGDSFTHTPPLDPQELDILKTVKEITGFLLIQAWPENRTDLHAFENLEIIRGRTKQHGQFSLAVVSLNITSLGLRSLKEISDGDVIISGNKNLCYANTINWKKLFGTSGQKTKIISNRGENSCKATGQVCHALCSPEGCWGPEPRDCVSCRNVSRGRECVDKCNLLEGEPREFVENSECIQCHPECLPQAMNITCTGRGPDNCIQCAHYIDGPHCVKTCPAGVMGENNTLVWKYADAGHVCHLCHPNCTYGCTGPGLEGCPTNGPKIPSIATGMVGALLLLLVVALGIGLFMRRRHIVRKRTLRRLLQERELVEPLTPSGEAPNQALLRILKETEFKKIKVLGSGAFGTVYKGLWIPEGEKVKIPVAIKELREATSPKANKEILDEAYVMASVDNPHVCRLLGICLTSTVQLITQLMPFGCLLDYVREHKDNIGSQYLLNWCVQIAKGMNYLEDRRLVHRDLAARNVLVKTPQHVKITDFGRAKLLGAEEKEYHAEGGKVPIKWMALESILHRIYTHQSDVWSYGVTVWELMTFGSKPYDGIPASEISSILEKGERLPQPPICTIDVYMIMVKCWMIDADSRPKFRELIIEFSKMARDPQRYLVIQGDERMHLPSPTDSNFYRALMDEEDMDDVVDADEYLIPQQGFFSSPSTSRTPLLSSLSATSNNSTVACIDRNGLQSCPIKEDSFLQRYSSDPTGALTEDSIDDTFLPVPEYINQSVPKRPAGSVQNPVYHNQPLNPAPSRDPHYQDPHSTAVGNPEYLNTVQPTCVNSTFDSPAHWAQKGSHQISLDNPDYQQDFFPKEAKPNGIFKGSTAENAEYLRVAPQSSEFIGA
T2 sequence (P00533 25-1210 T790M): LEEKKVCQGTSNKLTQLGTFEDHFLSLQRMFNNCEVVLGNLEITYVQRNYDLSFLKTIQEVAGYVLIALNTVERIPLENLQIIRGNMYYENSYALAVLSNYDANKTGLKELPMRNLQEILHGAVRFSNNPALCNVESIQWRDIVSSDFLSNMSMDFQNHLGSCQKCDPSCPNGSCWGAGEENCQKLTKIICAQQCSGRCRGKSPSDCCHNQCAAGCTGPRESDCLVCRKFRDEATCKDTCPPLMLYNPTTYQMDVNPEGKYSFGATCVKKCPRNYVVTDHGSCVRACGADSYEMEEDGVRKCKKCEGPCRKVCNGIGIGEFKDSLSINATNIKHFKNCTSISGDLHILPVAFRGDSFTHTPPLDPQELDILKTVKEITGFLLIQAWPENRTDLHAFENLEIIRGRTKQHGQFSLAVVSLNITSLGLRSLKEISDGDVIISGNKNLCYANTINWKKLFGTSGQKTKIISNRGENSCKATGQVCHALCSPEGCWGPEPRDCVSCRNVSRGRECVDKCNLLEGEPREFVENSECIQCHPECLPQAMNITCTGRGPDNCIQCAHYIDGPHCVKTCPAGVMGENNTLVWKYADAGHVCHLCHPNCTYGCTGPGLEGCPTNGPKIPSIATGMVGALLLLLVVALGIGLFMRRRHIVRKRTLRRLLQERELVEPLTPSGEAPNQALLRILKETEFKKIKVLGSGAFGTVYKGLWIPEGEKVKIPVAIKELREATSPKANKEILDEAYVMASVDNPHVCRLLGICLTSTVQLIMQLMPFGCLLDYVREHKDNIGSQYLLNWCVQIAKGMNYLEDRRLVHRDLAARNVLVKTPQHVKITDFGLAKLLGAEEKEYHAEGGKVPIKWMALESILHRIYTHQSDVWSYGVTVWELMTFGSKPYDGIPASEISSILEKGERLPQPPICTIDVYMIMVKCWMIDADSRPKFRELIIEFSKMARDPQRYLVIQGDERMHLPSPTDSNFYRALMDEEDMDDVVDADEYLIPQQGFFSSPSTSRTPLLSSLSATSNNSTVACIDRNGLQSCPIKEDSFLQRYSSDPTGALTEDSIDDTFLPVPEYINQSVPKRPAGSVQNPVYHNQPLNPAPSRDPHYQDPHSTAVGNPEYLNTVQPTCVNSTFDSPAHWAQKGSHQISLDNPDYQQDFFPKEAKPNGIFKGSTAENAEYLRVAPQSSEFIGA

CCOC(=O)c1c(N)nc2c(c1-c1ccc(Cl)cc1)c(=O)n(C)c(=O)n2C [Compound 1, Ethyl 7-amino-5-(4-chlorophenyl)-1,3-dimethyl-2,4-dioxo-1,2,3,4-tetrahydropyrido[2,3-d]pyrimidine-6-carboxylate]
MIC [1]: 100 µg/mL (≈ 257 µM)
IC50 [2]: 3.98 to 6.29 µM
%G0-G1 [3]: 74.86%
%G2/M [3]: 1.75%
%S [3]: 22.79%
IC50 [4]: 1.16 ± 0.036 µM
zone of inhibition at 100 µg/mL [5]: 9.5 ± 0.12 mm
IC50 at 48 h [6]: 81.7 ± 4.1 µM
MIC [7]: 50 µg/mL (≈ 129 µM)
SI MCF-7 [8]: 20.51
IC50 [8]: 3.98 ± 0.2 µM
SI HepG-2 [9]: 13.83
IC50 [9]: 5.9 ± 0.3 µM
SI HeLa [10]: 12.98
IC50 [10]: 6.29 ± 0.5 µM
IC50 [11]: 0.093 ± 0.003 µM
%inh EGFR WT ([11]; conc 0.01): 29.6%
%inh EGFR WT ([11]; conc 0.1): 51%
%inh EGFR WT ([11]; conc 1): 74.5%
%inh EGFR WT ([11]; conc 10): 85.3%
%inh EGFR WT ([11]; conc 100): 96.1%
zone of inhibition at 100 µg/mL [12]: 2 ± 0.05 mm
IC50 [13]: 0.174 ± 0.006 µM
MIC [14]: 100 µg/mL (≈ 257 µM)
MIC [15]: 50 µg/mL (≈ 129 µM)
Length of migration ([16]; MCF-7, 72 h): 0.31–0.32 mm
Migrated cells area ([16]; MCF-7, 72 h): 0.564 mm^2
Length of migration ([16]; MCF-7, 72 h, listed as U1): 0.31 mm
% Closure (wound closure) ([16]; MCF-7, after 72 h): 69.63% and 69.63 ± 2.57%
%inh EGFR_T790M ([17]; conc 0.01): 22.1%
%inh EGFR_T790M ([17]; conc 0.1): 51.1%
%inh EGFR_T790M ([17]; conc 1): 66.5%
%inh EGFR_T790M ([17]; conc 10): 82.2%
%inh EGFR_T790M ([17]; conc 100): 96.1%
%inh EGFR_L858R ([18]; conc 0.01): 9.88%
%inh EGFR_L858R ([18]; conc 0.1): 23.7%
%inh EGFR_L858R ([18]; conc 1): 40%
%inh EGFR_L858R ([18]; conc 10): 75.6%
%inh EGFR_L858R ([18]; conc 100): 93.7%
Fold-Change L858R/WT [18]: 12 × and 12.44×
Apoptosis Early [19]: 5.86%
Apoptosis Late [19]: 16.62%
Apoptosis Total [19]: 26.37%
Necrosis [19]: 3.89%
zone of inhibition at 100 µg/mL [20]: 10.5 ± 0.05 mm

Cn1c(=O)c2c(-c3ccc(Cl)cc3)c(C(=O)NN)c(N)nc2n(C)c1=O [Compound 2, 7-Amino-5-(4-chlorophenyl)-1,3-dimethyl-2,4-dioxo-1,2,3,4-tetrahydropyrido[2,3-d]pyrimidine 6-carbohydrazide]
IC50 [2]: 7.54 to 12.9 µM
IC50 [4]: 1.6 ± 0.05 µM
IC50 at 48 h [6]: 64.1 ± 3.5 µM
SI MCF-7 [8]: 7.44
IC50 [8]: 8.61 ± 0.6 µM
SI HepG-2 [9]: 4.95
IC50 [9]: 12.9 ± 1 µM
SI HeLa [10]: 8.6
IC50 [10]: 7.54 ± 0.7 µM
IC50 [11]: 0.212 ± 0.007 µM
%inh EGFR WT ([11]; conc 0.01): 24.6%
%inh EGFR WT ([11]; conc 0.1): 42.5%
%inh EGFR WT ([11]; conc 1): 67.1%
%inh EGFR WT ([11]; conc 10): 81.4%
%inh EGFR WT ([11]; conc 100): 94.6%
IC50 [13]: 0.854 ± 0.027 µM
Fold-Change T790M/WT ([17]; potency relative to wild-type EGFR): 4.03×
%inh EGFR_L858R ([18]; conc 0.01): 6.07%
%inh EGFR_L858R ([18]; conc 0.1): 19%
%inh EGFR_L858R ([18]; conc 1): 43.5%
%inh EGFR_L858R ([18]; conc 10): 68.3%
%inh EGFR_L858R ([18]; conc 100): 90.7%
Fold-Change L858R/WT [18]: 7.5 × and 7.56×

Cn1c(=O)c2c(-c3ccc(Cl)cc3)c(C3=NN=C4N=CN=C(N)C43)c(N)nc2n(C)c1=O (centres unmarked) [Compound 12, 7-Amino-6-(4-amino-3aH-pyrazolo [3,4-d]pyrimidin-3-yl)-5-(4-chlorophenyl)-1,3-dimethylpyrido[2,3-d]pyrimidine-2,4(1H,3H)-dione]
MIC S. aureus ATCC25923 [1]: >100 µg/mL
MIC [1]: > 100 µg/mL
zone of inhibition at 100 µg/mL [5]: 10.4 ± 0.08 mm
IC50 at 48 h [6]: 18.2 ± 1.4 µM
MIC [7]: 50 µg/mL (≈ 111 µM)
SI MCF-7 [8]: 0.31
IC50 [8]: 58.8 ± 3.3 µM
SI HepG-2 [9]: 0.33
IC50 [9]: 54.3 ± 3.2 µM
SI HeLa [10]: 0.41
IC50 [10]: 44.2 ± 2.6 µM
zone of inhibition at 100 µg/mL [12]: 2 ± 0.05 mm
MIC [14]: 100 µg/mL (≈ 222 µM)
MIC [15]: 50 µg/mL (≈ 111 µM)
%inh EGFR_T790M ([17]; conc 0.01): 6.2%
%inh EGFR_T790M ([17]; conc 0.1): 29.8%
%inh EGFR_T790M ([17]; conc 1): 52.9%
%inh EGFR_T790M ([17]; conc 10): 75.1%
%inh EGFR_T790M ([17]; conc 100): 93.5%
zone of inhibition at 100 µg/mL [20]: 10.5 mm

Cc1cc(C)n(-c2c[nH]nc2NC(=O)c2c(N)nc3c(c2-c2ccc(Cl)cc2)c(=O)n(C)c(=O)n3C)n1 [Compound 13, 7-Amino-5-(4-chlorophenyl)-N-(3,5-dimethyl-1′H-[1,4′-bipyrazol]-3′-yl)-1,3-dimethyl-2,4-dioxo-1,2,3,4-tetrahydropyrido[2,3-d]pyrimidine-6-carboxamide]
MIC S. aureus ATCC25923 [1]: >100 µg/mL
MIC [1]: > 100 µg/mL
IC50 [2]: 28 to 36 µM
zone of inhibition at 100 µg/mL [5]: 14.5 ± 0.15 mm
IC50 at 48 h [6]: 10.7 ± 0.8 µM
MIC [7]: 100 µg/mL (≈ 192 µM)
SI MCF-7 [8]: 0.29
IC50 [8]: 36.1 ± 2.2 µM
SI HepG-2 [9]: 0.32
IC50 [9]: 32.6 ± 2.1 µM
SI HeLa [10]: 0.37
IC50 [10]: 28.7 ± 1.9 µM
MIC E. faecalis ATCC29212 [14]: >100 µg/mL
MIC [14]: > 100 µg/mL
MIC [15]: 50 µg/mL (≈ 96.2 µM)
zone of inhibition at 100 µg/mL [20]: 16.8 mm

CC1=NN(C(=S)NC(=O)c2c(N)nc3c(c2-c2ccc(Cl)cc2)c(=O)n(C)c(=O)n3C)C(=O)C1 [Compound 16, 7-Amino-5-(4-chlorophenyl)-1,3-dimethyl-N-(3-methyl-5-oxo-4,5-dihydro-1H-pyrazole-1-carbonothioyl)-2,4-dioxo-1,2,3,4-tetrahydropyrido[2,3-d]pyrimidine-6-carboxamide]
MIC [1]: 100 µg/mL (≈ 200 µM)
IC50 [2]: 35 to 65 µM
zone of inhibition at 100 µg/mL [5]: 18.5 ± 0.15 mm
IC50 at 48 h [6]: 57.6 ± 3.2 µM
zone of inhibition at 100 µg/mL [21]: 4.5 ± 0.1 mm
SI MCF-7 [8]: 1.34
IC50 [8]: 42.9 ± 2.5 µM
SI HepG-2 [9]: 0.88
IC50 [9]: 65.1 ± 3.4 µM
SI HeLa [10]: 1.65
IC50 [10]: 34.8 ± 2.1 µM
zone of inhibition at 100 µg/mL [12]: 4 ± 0.6 mm
MIC [14]: 100 µg/mL (≈ 200 µM)
MIC [15]: 50 µg/mL (≈ 100 µM)
zone of inhibition at 100 µg/mL [20]: 17.6 mm
